The subject of one data set is Swiss nu/nu mice. The experiment in a line: Toxicity seen in mice bearing MDA-MB-468 xenografts (in vivo efficacy study). To be noted: 1 mg/kg, subcutaneously, bi-daily, mice with MDA-MB-468 xenografts; all mice died after only a few days; preliminary experiment, data not shown. As for the experimental part: The experiments were conducted according to the Guide for the Care and Use of Laboratory Animals published by the US National Institutes of Health (NIH Publication n°85-23, revised 1996) and approved by the Ethic Committee of Clermont-Ferrand, France. All mouse studies were conducted in the animal facility of the INSERM U1240. Six weeks old Swiss nu/nu mice were purchased from Charles River Laboratories France and housed in standard conditions (n=5 per cage on ventilated racks, at 21-24 °C, 60% humidity, 12 h light/12 h dark cycle) with ad libitum access to irradiated food and water. […]
For assessment of HHT toxicity, groups of 6 mice were injected with sterile saline or 1, 2, 4 or 8 mg/kg of the drug, subcutaneously, bi-daily, over 7 days. […] The number of live animals was determined at days 4, 8 and 10, after treatment initiation.
For evaluation of HHT efficacy in vivo, when xenografts reached a volume of 200±20 mm^3, mice were randomized into the control or the treated group. […] Tumor size was non-invasively assessed using a digital caliper on days 3, 6, 8 and 10 after treatment initiation. Tumor volume was calculated using the following formula: V=(length×width^2)/2.

Data set [1] concerns multidrug-resistant cell lines. To be noted: greater than that of HHT; cited from earlier work.

In the case of `COC(=O)C[C@](O)(CCCC(C)(C)O)C(=O)O[C@@H]1C(OC)=C[C@]23CCCN2CCc2cc4c(cc2[C@H]13)OCO4` [HHT, Homoharringtonine], the “toxicity for the animals” value in the data set with Swiss nu/nu mice is on record as “too toxic”.
In the case of `C/C=C/C=C/COC(=O)C[C@](O)(CCCC(C)(C)O)C(=O)O[C@@H]1C(OC)=C[C@]23CCCN2CCc2cc4c(cc2[C@H]13)OCO4` [OP5215], the antileukemic activity in data set [1] is 5 times.

Source of the values: patent publication EP3763715A1, “HARRINGTONINES SALTS, IN PARTICULAR RETINOATES, THEIR PROCESS OF PREPARATION AND THEIR USES IN THE TREATMENT OF LEUKEMIAS, CANCERS, AUTOIMMUNE, SKIN, ALZHEIMER'S AND INFLAMMATORY BOWEL DISEASES AND VIRAL INFECTIONS, COMBINED WITH MYELOPOIESIS STIMULATING AGENTS” (Robin, Jean-Pierre, priority 2019, dated 2021).
